According to patent publication US20160106695A1, “PETROSELINIC ACID OR A COMBINATION OF ACTIVE INGREDIENTS COMPRISING AT LEAST PETROSELINIC ACID FOR PROMOTING WEIGHT LOSS AND/OR WEIGHT MAINTENANCE” (NESTEC SA, priority 2013, published 2016):

Test system: lipoxin A4 production by mononuclear blood cells
Test: Synthesis/release of lipoxin A4 by stimulated (PMA/A23187 + DHA/EPA) mononuclear blood cells, LC-MS quantification
Type: cell-based
Conditions: 30 min pre-incubation, 2 hours of stimulation
Experimental: Mononuclear blood cells are cultured under 5% CO2 and at 37° C. in a serum-free medium for macrophages (SFM Macrophage; Invitrogen 12065074) for 24 hours.
After this step, the medium is replaced with the same fresh test medium also containing the active agents at the various doses for 30 minutes in the presence of the various products to be evaluated, as indicated in the table of results below. The inflammatory response was then triggered in the presence of phorbol myristate (0.05 μM) and calcium ionophore (1 μM) and of a lipid substrate mixture composed of docosahexaenoic acid (DHA—1 μg/mL) and eicosapentaenoic acid (EPA—1 μg/mL).
The supernatants were then collected after 2 hours of stimulation and frozen at −80° C. before preparation for analysis by mass spectrometry.
Experimental triplicates (three wells) were prepared per experimental condition. Into each culture plate was placed a control corresponding to cells stimulated with the PMA/A23187 mixture and/or with addition of the equimolar mixture of fatty acids.
The thawed supernatants were concentrated by solid-phase extraction (SPE) and taken up in methanol before spectrometric analysis. The analytical method used consists in separating the various analytes by high-pressure liquid chromatography as a function of their retention time and in quantifying them by mass spectrometry. […]

Molecule | Level of lipoxin A4 production (% modulation relative to the control) (taurine 3.1 mg/ml) | Level of lipoxin A4 production (% modulation relative to the control) (zinc gluconate 0.005 mg/ml) [%]
NCCS(=O)(=O)O [Taurine] | +38% | –
Zinc gluconate | – | −5
